The values that follow come from patent US10501461B2, “Tyrosine amide derivatives as Rho-kinase inhibitors” (CHIESI FARMACEUTICI S.P.A., priority 2017, dated 2019).

For assay [1], the target named is Rho kinase 1 (ROCK-I) (Homo sapiens, UniProt Q13464). The experiment in a line: In vitro Rho kinase inhibitory activity assay (ADP-Glo), Rho kinase 1. The conditions noted are these: 10 μM ATP, 25° C., expressed as range of activity. The format is biochemical. In short, it runs like this: (§1)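 ADP-Glo luminescence assay at 25 °C in 40 mM Tris pH 7.5, 20 mM MgCl2, 0.1 mg/ml BSA, 50 μM DTT, with 2.5 μM myelin basic protein, 10 μM ATP and 1% DMSO. Compound and ROCK1 or ROCK2 were preincubated 30 min, then reacted 1 h. IC50 came from a sigmoidal fit; Ki via Cheng-Prusoff.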
Rho kinase 1 (ROCK-I), sequence (Q13464 whole entry): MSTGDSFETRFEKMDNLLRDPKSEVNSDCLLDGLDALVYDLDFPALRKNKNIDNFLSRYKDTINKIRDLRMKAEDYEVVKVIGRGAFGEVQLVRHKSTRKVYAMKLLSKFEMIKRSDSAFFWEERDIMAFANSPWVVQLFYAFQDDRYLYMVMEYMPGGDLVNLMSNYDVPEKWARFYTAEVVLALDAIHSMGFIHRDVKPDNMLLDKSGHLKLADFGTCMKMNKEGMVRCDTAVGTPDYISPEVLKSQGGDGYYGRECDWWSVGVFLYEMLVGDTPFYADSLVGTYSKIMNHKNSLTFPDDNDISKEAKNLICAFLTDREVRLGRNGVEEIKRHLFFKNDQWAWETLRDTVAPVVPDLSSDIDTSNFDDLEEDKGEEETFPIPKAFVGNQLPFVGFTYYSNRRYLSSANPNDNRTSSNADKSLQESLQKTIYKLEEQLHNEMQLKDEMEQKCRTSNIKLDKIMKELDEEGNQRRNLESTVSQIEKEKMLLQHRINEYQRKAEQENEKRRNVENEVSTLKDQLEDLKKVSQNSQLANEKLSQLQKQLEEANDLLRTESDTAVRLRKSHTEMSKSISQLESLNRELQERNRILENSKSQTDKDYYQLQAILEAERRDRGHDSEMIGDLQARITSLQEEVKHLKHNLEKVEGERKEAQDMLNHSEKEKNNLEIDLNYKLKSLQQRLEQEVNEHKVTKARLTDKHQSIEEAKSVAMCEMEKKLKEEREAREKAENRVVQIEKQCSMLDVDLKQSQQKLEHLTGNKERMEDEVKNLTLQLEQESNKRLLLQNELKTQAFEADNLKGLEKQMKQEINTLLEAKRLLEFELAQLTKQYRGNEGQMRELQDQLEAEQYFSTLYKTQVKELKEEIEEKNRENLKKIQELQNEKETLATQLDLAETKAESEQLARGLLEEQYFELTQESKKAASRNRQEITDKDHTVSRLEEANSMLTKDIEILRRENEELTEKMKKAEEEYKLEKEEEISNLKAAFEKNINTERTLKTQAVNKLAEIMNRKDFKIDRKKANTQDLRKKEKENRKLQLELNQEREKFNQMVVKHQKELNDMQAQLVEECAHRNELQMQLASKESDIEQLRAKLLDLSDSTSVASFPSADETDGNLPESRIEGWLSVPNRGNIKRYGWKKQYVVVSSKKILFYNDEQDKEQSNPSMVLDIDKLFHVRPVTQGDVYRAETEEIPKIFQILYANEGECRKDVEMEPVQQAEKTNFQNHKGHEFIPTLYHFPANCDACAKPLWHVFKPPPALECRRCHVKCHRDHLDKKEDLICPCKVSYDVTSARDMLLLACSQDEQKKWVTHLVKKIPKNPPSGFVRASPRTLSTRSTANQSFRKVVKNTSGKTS
A general note: In ADP-Glo the light output rises with the ADP produced.

The target in assay [2] is Rho kinase 2 (ROCK-II) (Homo sapiens, UniProt O75116). The experiment in a line: In vitro Rho kinase inhibitory activity assay (ADP-Glo), Rho kinase 2. The format is biochemical. To be noted: 10 μM ATP, 25° C., expressed as range of activity. In short, it runs like this:
as §1

Rho kinase 2 (ROCK-II), sequence (O75116 whole entry): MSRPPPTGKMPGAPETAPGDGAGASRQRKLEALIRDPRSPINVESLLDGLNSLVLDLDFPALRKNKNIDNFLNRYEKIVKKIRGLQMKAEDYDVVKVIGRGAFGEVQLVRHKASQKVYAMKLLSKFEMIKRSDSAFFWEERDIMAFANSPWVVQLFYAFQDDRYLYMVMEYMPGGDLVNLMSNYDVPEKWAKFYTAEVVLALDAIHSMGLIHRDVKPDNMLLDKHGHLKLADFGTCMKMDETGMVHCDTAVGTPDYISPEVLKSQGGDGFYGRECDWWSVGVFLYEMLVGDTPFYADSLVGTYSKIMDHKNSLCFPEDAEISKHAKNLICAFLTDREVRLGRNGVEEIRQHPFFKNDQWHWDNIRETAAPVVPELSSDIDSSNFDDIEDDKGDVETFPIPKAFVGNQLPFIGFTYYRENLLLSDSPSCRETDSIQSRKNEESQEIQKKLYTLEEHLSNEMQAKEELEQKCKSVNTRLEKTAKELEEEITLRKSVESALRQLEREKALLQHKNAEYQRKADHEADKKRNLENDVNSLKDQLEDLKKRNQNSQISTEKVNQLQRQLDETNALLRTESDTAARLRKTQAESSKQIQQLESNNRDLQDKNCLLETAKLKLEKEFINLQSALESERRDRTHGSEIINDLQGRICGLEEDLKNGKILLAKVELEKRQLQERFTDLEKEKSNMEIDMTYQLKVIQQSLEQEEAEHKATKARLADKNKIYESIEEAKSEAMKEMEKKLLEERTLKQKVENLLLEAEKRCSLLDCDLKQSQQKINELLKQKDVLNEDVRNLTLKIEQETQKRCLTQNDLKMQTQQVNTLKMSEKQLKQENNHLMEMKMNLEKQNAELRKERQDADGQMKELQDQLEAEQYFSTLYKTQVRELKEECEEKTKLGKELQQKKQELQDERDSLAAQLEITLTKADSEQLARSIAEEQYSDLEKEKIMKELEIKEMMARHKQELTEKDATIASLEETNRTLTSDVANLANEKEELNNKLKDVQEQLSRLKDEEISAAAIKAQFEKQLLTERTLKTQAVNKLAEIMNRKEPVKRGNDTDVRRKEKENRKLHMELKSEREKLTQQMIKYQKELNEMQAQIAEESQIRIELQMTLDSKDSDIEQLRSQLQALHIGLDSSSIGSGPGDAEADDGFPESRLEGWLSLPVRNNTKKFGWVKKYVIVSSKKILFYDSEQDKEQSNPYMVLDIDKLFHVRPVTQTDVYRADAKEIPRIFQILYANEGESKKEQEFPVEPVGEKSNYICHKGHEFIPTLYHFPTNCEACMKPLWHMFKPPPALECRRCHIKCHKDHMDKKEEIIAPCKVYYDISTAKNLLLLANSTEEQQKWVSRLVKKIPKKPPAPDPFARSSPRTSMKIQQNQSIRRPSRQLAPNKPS

In general, Ki refers to a dissociation constant, usually derived from enzyme kinetics or from competition with a known ligand. With `Cc1c[nH]c2nccc(Oc3ccc(C[C@H](N)C(=O)NC4CCOCC4)cc3)c12` [Example 90, (S)-2-amino-3-(4-((3-methyl-1H-pyrrolo[2,3-b]pyridin-4-yl)oxy)phenyl)-N-(tetrahydro-2H-pyran-4-yl)propanamide], the Ki in assay [1] and in assay [2] was less than 3 nM each time.

Take `Cc1c[nH]c2nccc(Oc3ccc(C[C@H](N)C(=O)N4C[C@@H](C)N(Cc5ccccc5)[C@@H](C)C4)cc3F)c12` [Example 26, (S)-2-amino-1-((3S,5R)-4-benzyl-3,5-dimethylpiperazin-1-yl)-3-(3-fluoro-4-((3-methyl-1H-pyrrolo[2,3-b]pyridin-4-yl)oxy)phenyl)propan-1-one]: the Ki in assay [1] and in assay [2] was less than 3 nM throughout.

Consider `N[C@@H](Cc1ccc(Oc2ccnc3[nH]cc(-c4ccncc4)c23)cc1)C(=O)N1CCN(Cc2ccccc2)CC1` [Example 192, (S)-2-amino-1-(4-benzylpiperazin-1-yl)-3-(4-((3-(pyridin-4-yl)-1H-pyrrolo[2,3-b]pyridin-4-yl)oxy)phenyl)propan-1-one], for which the Ki in assay [1] and in assay [2] was less than 3 nM throughout.

Turning to `CC(N)(Cc1ccc(Oc2ccnc3[nH]ccc23)cc1)C(=O)NC1CCOCC1` (stereo not shown) [Example 151, 3-(4-((1H-pyrrolo[2,3-b]pyridin-4-yl)oxy)phenyl)-2-amino-2-methyl-N-(tetrahydro-2H-pyran-4-yl)propanamide], the Ki in assay [1] and in assay [2] was greater than 30 nM throughout.

Take `N[C@H](Cc1ccc(Oc2ccnc3[nH]ccc23)cc1)C(=O)NC1CCOCC1` [Example 100, (R)-3-(4-((1H-pyrrolo[2,3-b]pyridin-4-yl)oxy)phenyl)-2-amino-N-(tetrahydro-2H-pyran-4-yl)propanamide]: the Ki in assay [1] and in assay [2] was greater than 30 nM in each case.

Consider `Cc1c[nH]c2nccc(Oc3ccc(CC(N)C(=O)N4CCCC4c4ccccc4)cc3F)c12` (single isomer, unassigned) [Example 84, 2-amino-3-(3-fluoro-4-((3-methyl-1H-pyrrolo[2,3-b]pyridin-4-yl)oxy)phenyl)-1-(2-phenylpyrrolidin-1-yl)propan-1-one], for which the Ki in assay [1] and in assay [2] was 3 to 30 nM in each case.

Regarding `Cc1c[nH]c2nccc(Oc3ccc(C[C@H](N)C(=O)N4C[C@@H]5C[C@H]4CN5C)cc3F)c12` [Example 25, (S)-2-amino-3-(3-fluoro-4-((3-methyl-1H-pyrrolo[2,3-b]pyridin-4-yl)oxy)phenyl)-1-((1S,4S)-5-methyl-2,5-diazabicyclo[2.2,1]heptan-2-yl)propan-1-one], the Ki in assay [1] and in assay [2] was less than 3 nM each time.

For `Cc1c[nH]c2nccc(Oc3ccc(C[C@H](N)C(=O)N4CCN(Cc5ccccc5)CC4)cc3)c12` [Example 88, (S)-2-amino-1-(4-benzylpiperazin-1-yl)-3-(4-((3-methyl-1H-pyrrolo[2,3-b]pyridin-4-yl)oxy)phenyl)propan-1-one], the Ki in assay [1] and in assay [2] was less than 3 nM in each case.

`Cc1c[nH]c2nccc(Oc3ccc(C[C@H](N)C(=O)N4CCN(Cc5cncn5C)CC4)cc3F)c12` [Example 158, (S)-2-amino-3-(3-fluoro-4--((3-methyl-1H-pyrrolo[2,3-b]pyridin-4-yl)oxy)phenyl)-1-(4-((1-methyl-1H-imidazol-5-yl)methyl)piperazin-1-yl)propan-1-one]: the inhibition constant (Ki) in assay [1] and in assay [2] was less than 3 nM throughout.

Regarding `Cc1c[nH]c2nccc(Oc3ccc(C[C@H](N)C(=O)NC4(CO)CCCCC4)cc3F)c12` [Example 32, (S)-2-amino-3-(3-fluoro-4-((3-methyl-1H-pyrrolo[2,3-b]pyridin-4-yl)oxy)phenyl)-N-(1-(hydroxymethyl)cyclohexyl)propanamide], the Ki in assay [1] and in assay [2] was less than 3 nM throughout.

On to `N[C@@H](Cc1ccc(Oc2ccnc3[nH]cc(CO)c23)c(F)c1)C(=O)N1CCN(Cc2ccccn2)CC1` [Example 213, (S)-2-amino-3-(3-fluoro-4-((3-(hydroxymethyl)-1H-pyrrolo[2,3-b]pyridin-4-yl)oxy)phenyl)-1-(4-(pyridin-2-ylmethyl)piperazin-1-yl)propan-1-one], for which the Ki in assay [1] and in assay [2] was less than 3 nM each time.

Take `Cc1c[nH]c2nccc(Oc3ccc(CC(N)C(=O)N4CCN(CCc5ccccc5)CC4)cc3F)c12` (stereo not shown) [Example 53, 2-amino-3-(3-fluoro-4-((3-methyl-1H-pyrrolo[2,3-b]pyridin-4-yl)oxy)phenyl)-1-(4-phenethylpiperazin-1-yl)propan-1-one]: the Ki in assay [1] and in assay [2] was less than 3 nM each time.

For the compound `Cc1c[nH]c2nccc(Oc3ccc(CC(N)C(=O)NCc4cccs4)cc3F)c12` (stereo not shown) [Example 61, 2-amino-3-(3-fluoro-4-((3-methyl-1H-pyrrolo[2,3-b]pyridin-4-yl)oxy)phenyl)-N-(thiophen-2-ylmethyl)propanamide], the Ki in assay [1] and in assay [2] was less than 3 nM throughout.

For `Cc1c[nH]c2nccc(Oc3ccc(CC(N)C(=O)NC4Cc5ccccc5C4)cc3F)c12` (stereo not shown) [Example 63, 2-amino-N-(2,3-dihydro-1H-inden-2-yl)-3-(3-fluoro-4-((3-methyl-1H-pyrrolo[2,3-b]pyridin-4-yl)oxy)phenyl)propanamide], the Ki in assay [1] and in assay [2] was less than 3 nM in each case.

For `Cc1c[nH]c2nccc(Oc3ccc(C[C@H](N)C(=O)N(C)CC4CCN(C)CC4)cc3F)c12` [Example 39, (S)-2-amino-3-(3-fluoro-4-((3-methyl-1H-pyrrolo[2,3-b]pyridin-4-yl)oxy)phenyl)-N-methyl-N-((1-methylpiperidin-4-yl)methyl)propanamide], the Ki in assay [1] and in assay [2] was 3 to 30 nM in each case.

Take `CCn1nccc1-c1c[nH]c2nccc(Oc3ccc(C[C@H](N)C(=O)N4CCN(Cc5ccccc5)CC4)cc3)c12` [Example 193, (S)-2-amino-1-(4-benzylpiperazin-1-yl)-3-(4-((3-(1-ethyl-1H-pyrazol-5-yl)-1H-pyrrolo[2,3-b]pyridin-4-yl)oxy)phenyl)propan-1-one]: the Ki in assay [1] and in assay [2] was 3 to 30 nM throughout.

Take `Cc1ccc(CN2CCN(C(=O)C(N)Cc3ccc(Oc4ccnc5[nH]cc(C)c45)c(F)c3)CC2)cc1` (stereo not shown) [Example 72, 2-amino-3-(3-fluoro-4-((3-methyl-1H-pyrrolo[2,3-b]pyridin-4-yl)oxy)phenyl)-1-(4-(4-methylbenzyl)piperazin-1-yl)propan-1-one]: the Ki in assay [1] and in assay [2] was less than 3 nM each time.

As for `Cc1c[nH]c2nccc(Oc3ccc(C[C@H](N)C(=O)N4CCN5CCOCC5C4)cc3F)c12` (stereo partly drawn) [Example 16, (2S)-2-amino-3-(3-fluoro-4-((3-methyl-1H-pyrrolo[2,3-b]pyridin-4-yl)oxy)phenyl)-1-(hexahydropyrazino[2,1-c][1,4]oxazin-8(1H)-yl)propan-1-one], the inhibition constant (Ki) in assay [1] and in assay [2] was less than 3 nM each time.

For the compound `Cc1c[nH]c2nccc(Oc3ccc(C[C@H](N)C(=O)N4CCOC(c5ccccc5)C4)cc3F)c12` (mixture of isomers) [Example 4, (2S)-2-amino-3-(3-fluoro-4-((3-methyl-1H-pyrrolo[2,3-b]pyridin-4-yl)oxy)phenyl)-1-(2-phenylmorpholino)propan-1-one], the Ki in assay [1] and in assay [2] was less than 3 nM throughout.

For `N[C@@H](Cc1ccc(Oc2ccnc3[nH]ccc23)cc1)C(=O)Nc1ccccc1` [Example 109, (S)-3-(4-((1H-pyrrolo[2,3-b]pyridin-4-yl)oxy)phenyl)-2-amino-N-phenylpropanamide], the Ki in assay [1] and in assay [2] was 3 to 30 nM in each case.

Turning to `Cc1c[nH]c2nccc(Oc3ccc(C[C@H](N)C(=O)N4CCN(Cc5cnc6ccccc6n5)CC4)cc3F)c12` [Example 159, (S)-2-amino-3-(3-fluoro-4-((3-methyl-1H-pyrrolo[2,3-b]pyridin-4-yl)oxy)phenyl)-1-(4-(quinoxalin-2-ylmethyl)piperazin-1-yl)propan-1-one], the Ki in assay [1] and in assay [2] was less than 3 nM each time.

For `Cc1c[nH]c2nccc(Oc3ccc(CC(N)C(=O)N4CCN(C)CC4)cc3F)c12` (stereo not shown) [Example 59, 2-amino-3-(3-fluoro-4-((3-methyl-1H-pyrrolo[2,3-b]pyridin-4-yl)oxy)phenyl)-1-(4-methylpiperazin-1-yl)propan-1-one], the Ki in assay [1] and in assay [2] was less than 3 nM throughout.

`CC(=O)N1CCN(C(=O)C(N)Cc2ccc(Oc3ccnc4[nH]cc(C)c34)c(F)c2)CC1` (stereo not shown) [Example 133, 1-(4-acetylpiperazin-1-yl)-2-amino-3-(3-fluoro-4-((3-methyl-1H-pyrrolo[2,3-b]pyridin-4-yl)oxy)phenyl)propan-1-one]: the Ki in assay [1] and in assay [2] was less than 3 nM throughout.

Regarding `Cc1c[nH]c2nccc(Oc3ccc(C[C@H](N)C(=O)N4CCN(C(=O)C5CCN(C)CC5)CC4)cc3F)c12` [Example 171, (S)-2-amino-3-(3-fluoro-4-((3-methyl-1H-pyrrolo[2,3-b]pyridin-4-yl)oxy)phenyl)-1-(4-(1-methylpiperidine-4-carbonyl)piperazin-1-yl)propan-1-one], the Ki in assay [1] and in assay [2] was 3 to 30 nM each time.

Turning to `Cc1c[nH]c2nccc(Oc3ccc(C[C@H](N)C(=O)NCCc4ccncc4)cc3)c12` [Example 89, (S)-2-amino-3-(4-((3-methyl-1H-pyrrolo[2,3-b]pyridin-4-yl)oxy)phenyl)-N-(2-(pyridin-4-yl)ethyl)propanamide], the Ki in assay [1] and in assay [2] was less than 3 nM each time.

Take `Cc1c[nH]c2nccc(Oc3ccc(CC(N)C(=O)N4Cc5ccncc5C4)cc3F)c12` (stereo not shown) [Example 65, 2-amino-3-(3-fluoro-4-((3-methyl-1H-pyrrolo[2,3-b]pyridin-4-yl)oxy)phenyl)-1-(1H-pyrrolo[3,4-c]pyridin-2(3H)-yl)propan-1-one]: the Ki in assay [1] and in assay [2] was less than 3 nM throughout.
